Assay results published in patent US20040072201A1, “Methods of identifying compounds that inhibit nonstop degradation of mRNA” (priority 2002, published 2004).

Key:
[1] = system: termination codon (UGA) in renilla luciferase ORF; assay: readthrough assay using a dual luciferase reporter construct; type: cell-based
From the text: FIG. 3 depicts the results of a readthrough assay using a dual luciferase reporter construct.
This example describes a readthrough assay that uses a dual lucifierase reporter construct. The firefly luciferase ORF is wild-type while translation of the renilla luciferase ORF is prevented by the presence of a termination codon (UGA). Cells were either untreated or treated with siRNAs directed against RRP4, an essential component of the exosome.

[2] = system: WT-PGK1 and Ter-poly(A)-PGK1 transcripts; assay: half-lives of WT-PGK1 and Ter-poly(A)-PGK1 transcripts in yeast treated with paromomycin; type: cell-based, Saccharomyces cerevisiae; settings: 100 μg/ml CHX added during the last hour before half-life determination
Experimental: FIG. 2 depicts graphs of the half-lives of WT-PGK1 and Ter-poly(A)-PGK1 transcripts in wild-type-(WT) and SK17-deleted (ski7A) yeast strains treated with the indicated dose of paromomycin (mg/ml) (PM) for 20 hours. For cycloheximide (CHX) experiments, yeast were treated identically except 100 μg/ml of CHX was added during the last hour before half-life determination.
Any event that diminishes translational fidelity and promotes readthrough of termination codons could plausibly result in the generation of substrates for nonstop decay. In view of recent attempts to treat genetic disorders resulting from PTCs with long-term and high-dose aminoglycoside regimens, this may achieve medical significance. As a proof-of-concept experiment, we examined the performance of transcripts with one [Ter-poly(A)-PGK1] or multiple (WT-PGK1) in-frame termination codons (including those in the 3′ UTR) in yeast strains after treatment with paromomycin, which induces ribosomal readthrough.
27. All PGK1 minigene constructs were under the control of the GAL1 upstream activation sequence (UAS). […] Half-lives were determined by plotting the percent of mRNA remaining versus time on a semi-log plot. All half-lives were determined at 25° C. except for the ccr4Δ (performed at 30° C.) and dcp1-2 [performed after shift to the nonpermissive temp (37° C.) for 1 hour] experiments.

nonstop-PGK1 transcripts = assay: nonstop-PGK1 mRNA stability (half-life by Northern blot) in yeast; type: cell-based, Saccharomyces cerevisiae; settings: treatment with translation inhibitor
From the text: In order to determine whether the presence of translational termination influences mRNA stability, we assayed PGK1 tran-scripts in Saccharomyces cerevisiae derived from the following constructs (3): wild-type PGK1 (WT-PGK1), a nonsense form of PGK1 harboring a PTC at codon 22 [PTC(22)-PGK1], and nonstop-PGK1 that was created by removing the bona fide termination codon and all in-frame termination codons in the 3′ UTR (untranslated region) from the WT-PGK1 transcript. Nonstop-PGK1 transcripts were as labile as their nonsense-containing counterparts. At least three trans-acting factors (Upf1p, Upf2p, and Upf3p) are essential for nonsense-mediated mRNA decay (NMD) in S. cerevisiae (4, 5). Remarkably, nonstop transcripts were not stabilized in strains lacking Upf1p, distinguishing the pathway of decay from NMD.
Additional experiments were performed to assess the role of translation in nonstop decay. […] It has been shown that translation into the 3′ UTR of selected transcripts can displace bound trans-factors that are positive determinants of message stability (13, 14). […]
27. […] Half-lives were determined by plotting the percent of mRNA remaining versus time on a semi-log plot. All half-lives were determined at 25° C. except for the ccr4Δ (performed at 30° C.) and dcp1-2 [performed after shift to the nonpermissive temp (37° C.) for 1 hour] experiments.

[3] = system: cultured chicken hepatocellular carcinoma cells; assay: ratio of truncated to full-length GHR transcripts after translational arrest; type: cell-based; settings: after treatment with translational inhibitor

Molecule: gentamycin
- readthrough, renilla:firefly ratio ([1]; exosome function inhibited by siRNAs directed against RRP4, increasing concentrations): dose-dependent increase in readthrough
- readthrough, renilla:firefly ratio ([1]; intact exosome function (control RNAi), increasing concentrations): do not result in a significant increase in readthrough

Molecule: C[C@@H]1C[C@@H]([C@H](O)CC2CC(=O)NC(=O)C2)C(=O)[C@@H](C)C1 [cycloheximide]
- effect on paromomycin-induced decrease in stability of Ter-poly(A)-PGK1 and WT-PGK1 transcripts [2]: could be reversed
- stability of nonstop-PGK1 transcripts (nonstop-PGK1 transcripts): substantially increased the stability

Molecule: CC[C@H]1CN2CCc3cc(OC)c(OC)cc3[C@@H]2C[C@@H]1C[C@H]1NCCc2cc(OC)c(OC)cc21 [emetine]
- ratio of truncated-to-full-length GHR transcripts [3]: dramatically increased
